Reference: article PMC12775434, “Ultra-large virtual screening unveils potent agonists of the neuromodulatory orphan receptor GPR139” (Nature Communications, 2025)
Where “and” joins values, the source holds several entries; their conditions need not be identical. Equal entries are not always repeated.

Key:
Type in all cases: cell-based
[1] = target: T1, human muscarinic acetylcholine M1 receptor (M1R) (Homo sapiens, UniProt P11229); experiment: Ca2+ mobilization counter-screen in M1R-CHOk1 cells; conditions: individual replicates (Supplementary Figure 5)
T1 sequence (P11229 1-460): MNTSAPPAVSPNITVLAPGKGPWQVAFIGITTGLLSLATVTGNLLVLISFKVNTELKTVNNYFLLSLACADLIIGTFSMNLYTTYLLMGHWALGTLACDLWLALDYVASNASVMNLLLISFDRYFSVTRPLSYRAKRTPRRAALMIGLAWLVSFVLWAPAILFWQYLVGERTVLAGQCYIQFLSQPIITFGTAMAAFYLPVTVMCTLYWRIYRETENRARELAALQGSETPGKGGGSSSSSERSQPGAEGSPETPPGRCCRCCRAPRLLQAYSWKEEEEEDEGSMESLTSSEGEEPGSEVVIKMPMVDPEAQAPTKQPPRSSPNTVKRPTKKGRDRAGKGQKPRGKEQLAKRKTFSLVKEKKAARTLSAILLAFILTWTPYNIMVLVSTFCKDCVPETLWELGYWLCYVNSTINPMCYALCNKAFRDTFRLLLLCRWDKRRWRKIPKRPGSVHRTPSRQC
Procedure: Primary screening and pharmacological characterization of compounds were performed using a CHO-K1 cell line that stably expresses human GPR139 (GPR139-CHOk1). The GPR139-CHOk1 cell line was kindly provided by H. Lundbeck A/S, Denmark[24]. GPR139-CHOk1 cells were grown in Ham’s F-12 Kaighn’s Modification Medium (ThermoFisher #21127030) supplemented with 10% dialyzed fetal bovine serum (US origin, ThermoFisher #26400044), 100 units/mL Penicillin-Streptomycin (ThermoFisher #15140122), and 1 mg/mL Geneticin (ThermoFisher #11811031). […] M1R-CHOk1 cells were purchased from The Missouri S&T cDNA Resource Center (#CEM100TN00). M1R-CHOk1 cells were grown in Ham’s F12 Medium (ThermoFisher #21765029) supplemented with 10% fetal bovine serum (Brazilian origin, ThermoFisher #10270106), 100 units/mL Penicillin-Streptomycin, and 0.25 mg/mL Geneticin. HEK293A cells transiently transfected with GPR139 were used for additional pharmacological assessment of signaling pathways activated by GPR139. HEK239A cells were generously provided by Dr. Asuka Inoue, Tohoku University, Japan. HEK293A cells were grown in Dulbecco’s Modified Eagle Medium (ThermoFisher #31966047) supplemented with 10% dialyzed fetal bovine serum and 100 units/mL Penicillin-Streptomycin. Cell lines were maintained at 37 °C in humidified incubator equilibrated with 5% CO2.
30,000 GPR139- or M1R-CHOk1 cells/well were seeded in black clear bottom tissue culture treated 96-well plates (Greiner #655090) and grown for 20–24 h. Cells were washed with HEPES buffer (Hank’s Balanced Salt Solution (HBBS) supplemented with 20 mM HEPES, 1 mM MgCl2, and 1 mM CaCl2; pH 7.4). Cells were loaded with 50 µL of 2 µM Fluo-4 AM dye (ThermoFisher #F14202) in HEPES buffer supplemented with 2.5 mM probenecid and 0.01% Pluronic F-68 (ThermoFisher #24040032) for 1 h at 37 °C. Cells were washed with HEPES buffer. 50 µL HEPES buffer supplemented with 2.5 mM probenecid was added, and the cells were incubated for 10 min at 37 °C before measurement. 50 µL test compounds diluted in HEPES buffer from DMSO stocks (final DMSO concentration of maximally 0.3%) were added automatically after baseline measurements. The intracellular calcium mobilization was measured on a FlexStation 3 Multimode Microplate Reader (Molecular Devices) at 37 °C with filters for excitation of 485 nm and emission of 525 nm.

[2] = target: T2, GPR139 (Homo sapiens, UniProt Q6DWJ6); experiment: Ca2+ mobilization assay, agonist mode, stable GPR139-CHOk1 cell line
T2 sequence (Q6DWJ6 1-353): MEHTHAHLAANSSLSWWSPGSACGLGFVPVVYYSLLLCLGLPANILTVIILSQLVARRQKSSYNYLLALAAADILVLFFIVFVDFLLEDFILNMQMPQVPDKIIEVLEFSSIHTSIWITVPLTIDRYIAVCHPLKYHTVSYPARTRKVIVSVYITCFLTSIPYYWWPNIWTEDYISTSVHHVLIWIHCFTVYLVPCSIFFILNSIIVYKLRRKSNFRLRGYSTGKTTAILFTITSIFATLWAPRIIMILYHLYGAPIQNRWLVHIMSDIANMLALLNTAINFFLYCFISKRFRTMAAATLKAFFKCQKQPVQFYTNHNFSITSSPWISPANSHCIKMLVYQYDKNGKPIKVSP
How it was run: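 Agonist activity of compounds is assessed in stably transfected CHO-K1 cells using the calcium dye Fluo-4 at 37 °C in HEPES-buffered HBSS (pH 7.4). Efficacy is expressed relative to the reference agonist Lundbeck Cmp 1a, set as 100%.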

[3] = target: T2, GPR139; experiment: Ca2+ mobilization assay, antagonist mode (EC80 800 nM Lundbeck Cmp 1a after 20 min preincubation), GPR139-CHOk1
How it was run: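 Antagonist mode: 800 nM (EC80) reference agonist Lundbeck Cmp 1a added following 20 min pre-incubation with 10 µM compound. GPR139-CHOk1 cells, Fluo-4 dye, probenecid-containing HEPES buffer pH 7.4; intracellular Ca2+ measured at 37 °C (ex 485, em 525 nm).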

[4] = Agonist mode, individual replicates (Supplementary Figure 1)
[5] = individual replicates (Supplementary Figure 1)

Row | SMILES | Ca2+ signal (% of Cmp 1a) [2, 4] | Ca2+ signal (% of Cmp 1a) [3, 5] | also measured
1 | Cc1cncc(-c2nc(CC(=O)NC(C)c3ccccc3)no2)c1 (stereo not shown) [Compound 1.24, CC(C1=CC=CC=C1)NC(CC2=NOC(C3=CC(C)=CN=C3)=N2)=O] |  |  | Ca2+ signal (% of Carbachol) [1]: -0.598 % of Carbachol and 5 % of Carbachol and 4.73 % of Carbachol; Ca2+ signal (% of Cmp 1a) ([2]; Agonist mode, individual replicates (Supplementary Figure 4)): 83 % of Cmp 1a and 52 % of Cmp 1a and 78 % of Cmp 1a; fold decrease in potency relative to a similar phenyl substituted compound (1.3) ([2]; Ca2+ mobilization EC50): 4- to 16 fold; EC50 ([2]; Supplementary Table 2, mean ± SEM, read-out: pEC50 Ca2+ (converted)): 1.58 µM; Emax ([2]; Supplementary Table 2, normalized to Lundbeck Cmp 1a, mean ± SEM, read-out: Emax (%) Ca2+): 91 ± 4%; Ca2+ signal (% of Cmp 1a) ([2]; log [Compound] M = -4.5, individual replicate columns): 103 % of Cmp 1a and 95 % of Cmp 1a and 70 % of Cmp 1a and 88 % of Cmp 1a and 90 % of Cmp 1a; Ca2+ signal (% of Cmp 1a) ([2]; log [Compound] M = -5.0, individual replicate columns): 68 % of Cmp 1a and 86 % of Cmp 1a and 73 % of Cmp 1a and 72 % of Cmp 1a and 97 % of Cmp 1a; Ca2+ signal (% of Cmp 1a) ([2]; log [Compound] M = -5.5, individual replicate columns): 50 % of Cmp 1a and 66 % of Cmp 1a and 58 % of Cmp 1a and 47 % of Cmp 1a and 97 % of Cmp 1a; Ca2+ signal (% of Cmp 1a) ([2]; log [Compound] M = -6.0, individual replicate columns): 24 % of Cmp 1a and 41 % of Cmp 1a and 39 % of Cmp 1a and 38 % of Cmp 1a and 62 % of Cmp 1a; Ca2+ signal (% of Cmp 1a) ([2]; log [Compound] M = -6.5, individual replicate columns): 1.31 % of Cmp 1a and 19 % of Cmp 1a and 31 % of Cmp 1a and 8.44 % of Cmp 1a and 34 % of Cmp 1a; Ca2+ signal (% of Cmp 1a) ([2]; log [Compound] M = -7.0, individual replicate columns): 2.29 % of Cmp 1a and 0.399 % of Cmp 1a and 4 % of Cmp 1a and 2 % of Cmp 1a and 17 % of Cmp 1a; Ca2+ signal (% of Cmp 1a) ([2]; log [Compound] M = -7.5, individual replicate columns): -0.0494 % of Cmp 1a and 2.8 % of Cmp 1a and -5.43 % of Cmp 1a and 8 % of Cmp 1a and 5.52 % of Cmp 1a; Ca2+ signal (% of Cmp 1a) ([2]; log [Compound] M = -8.0, individual replicate columns): -0.83 % of Cmp 1a and 7.38 % of Cmp 1a and -0.358 % of Cmp 1a and 15 % of Cmp 1a and 4 % of Cmp 1a; Ca2+ signal (% of Cmp 1a) ([2]; log [Compound] M = -8.5, individual replicate columns): 3.55 % of Cmp 1a and 3 % of Cmp 1a and -1.51 % of Cmp 1a and 6 % of Cmp 1a and 3.35 % of Cmp 1a; Ca2+ signal (% of Cmp 1a) ([2]; log [Compound] M = -9.0, individual replicate columns): 2 % of Cmp 1a and 1.41 % of Cmp 1a and 6 % of Cmp 1a and 4 % of Cmp 1a and 3 % of Cmp 1a; Ca2+ signal (% of Cmp 1a) ([3]; individual replicates (Supplementary Figure 4)): 5.33 % of Cmp 1a and 17 % of Cmp 1a and -8 % of Cmp 1a
2 | O=C(Cn1ccnc1)Nc1cccc(N2C(=O)c3ccccc3C2=O)c1 [Compound 24, O=C(CN1C=CN=C1)NC=2C=CC=C(C2)N3C(=O)C=4C=CC=CC4C3=O] | -4 % of Cmp 1a and 3 % of Cmp 1a and -9 % of Cmp 1a | 76.1398 % of Cmp 1a and 60.9703 % of Cmp 1a and 76.3719 % of Cmp 1a | 
3 | C[C@H](NC(=O)c1cn2cccnc2n1)c1ccccc1 [Compound 18, C[C@H](NC(=O)C1=CN2C=CC=NC2=N1)C=3C=CC=CC3] | 2.28 % of Cmp 1a and 13 % of Cmp 1a and 21 % of Cmp 1a | 80.6397 % of Cmp 1a and 68.0976 % of Cmp 1a and 80.5455 % of Cmp 1a | 
4 | Cc1ccc(C(C)(C)NC(=O)Nc2cnc3nccn3c2)cn1 [Compound 56, CC=1C=CC(=CN1)C(C)(C)NC(=O)NC=2C=NC3=NC=CN3C2] | 5.3 % of Cmp 1a | 82.8713 % of Cmp 1a | 
5 | C[C@H](NC(=O)c1ccc(=O)n(-c2ccc(F)cc2)n1)c1ccccc1 [Compound 16, C[C@H](NC(=O)C=1C=CC(=O)N(N1)C=2C=CC(F)=CC2)C=3C=CC=CC3] | -6 % of Cmp 1a and 42 % of Cmp 1a and 24 % of Cmp 1a | 74.1067 % of Cmp 1a and 36.0111 % of Cmp 1a and 92.3974 % of Cmp 1a | 
6 | O=C(Nc1nc(C(F)(F)F)cs1)c1ccccc1-n1cnnn1 [Compound 58, FC(F)(F)C1=CSC(NC(=O)C=2C=CC=CC2N3C=NN=N3)=N1] | 8 % of Cmp 1a and -1.73 % of Cmp 1a and -5 % of Cmp 1a | 95.3999 % of Cmp 1a and 91.9653 % of Cmp 1a and 85.8363 % of Cmp 1a | 
7 | Cc1ccc(-n2cc(NC(=O)NCc3cccs3)cn2)c(C)c1 [Compound 37, CC=1C=CC(=C(C)C1)N2C=C(NC(=O)NCC3=CC=CS3)C=N2] | -6 % of Cmp 1a and 12 % of Cmp 1a and 7 % of Cmp 1a | 89.9792 % of Cmp 1a and 76.2749 % of Cmp 1a and 86.0947 % of Cmp 1a | 
8 | O=C(NCc1cccnc1)c1cn(-c2cccc(Cl)c2)nn1 [Compound 35, ClC=1C=CC=C(C1)N2C=C(N=N2)C(=O)NCC=3C=CC=NC3] | 5.3 % of Cmp 1a and 12 % of Cmp 1a and 7.49 % of Cmp 1a | 84.5048 % of Cmp 1a and 71.7301 % of Cmp 1a and 84.4533 % of Cmp 1a | 
9 | O=C(CCn1nnn(-c2ccccc2)c1=O)Nc1ccc(F)cc1 [Compound 57, FC=1C=CC(NC(=O)CCN2N=NN(C=3C=CC=CC3)C2=O)=CC1] | 6 % of Cmp 1a and 0.524 % of Cmp 1a and 4 % of Cmp 1a | 80.3514 % of Cmp 1a and 84.9179 % of Cmp 1a and 81.9632 % of Cmp 1a | 
10 | Cc1noc(-c2ccc(C)c(NC(=O)CSc3nncs3)c2)n1 [Compound 65, CC1=NOC(=N1)C=2C=CC(C)=C(NC(=O)CSC3=NN=CS3)C2] | 2.7 % of Cmp 1a and 1.38 % of Cmp 1a and -3.61 % of Cmp 1a | 71.2308 % of Cmp 1a and 90.2803 % of Cmp 1a and 89.1818 % of Cmp 1a | 
